Experimental data taken from patent US7098241B2, “Thiophene hydroxamic acid derivatives” (Hoffmann-La Roche Inc., priority 2002, dated 2006).
pIC50: −log10 of the molar value. Like-named read-outs stand apart in the source and are kept apart here.

Tests used:
[1] = tested on: HT-29 cells (human colon carcinoma cell line); assay: MTT anti-proliferation assay on HT-29 cells; format: cell-based; settings: 384 well plates, 5 days, read-out: IC50 HT29 384
Source text: MTT (3-(4,5-dimethylthiazol-2-yl)-2,5-diphenyl tetrazolium bromide) is widely used for the quantitative determination of cytotoxic effects or in vitro chemosensitivity of tumor cells. The assay is based on the cleavage of the yellow tetrazolium salt (MTT) to purple formazan crystals by metabolic active cells. For details, see Rubinstein, L. V., et al., J. Natl. Cancer Inst. 82 (1990) 1113.
We proceeded as follows: HT-29 cells (human colon carcinoma cell line) were cultivated in RPMI 1640, 2.5% FCS, 2 mM glutamine, 100 u/ml penicillin, 100 ug/ml streptomycin. For the assay the cells were seeded in 384 well plates, 900 cells per well, in the same medium. At the next day, the compounds (dissolved 10 mM in DMSO) were added in various concentrations ranging from 30 uM to 1.5 nM. After 5 days, the MTT assay was done mainly according to the instructions of the manufacturer (Cell proliferation kit I, MTT, from Roche Molecular Biochemicals). In brief: MTT labeling reagent was added to a final concentration of 0.5 mg/ml, added and incubated for 4 hrs at 37° C., 5% CO2. During this incubation time purple formazan crystals are formed. After addition of the solubilization solution (20% SDS in 0.02 M HCl) the plates were incubated overnight at 37° C., 5% CO2. After careful mixing, the plates were measured in Victor 2 (scanning multiwell spectrophotometer, Wallac) at 550 nm.
A decrease in number of living cells results in a decrease in the total metabolic activity in the sample. The decrease directly correlates to the amount of purple color resulting from the solubilization of the purple formazan crystals. Determination of IC50 was done using XL-fit.

[2] = target: T1, recombinant HDAC-1 (Homo sapiens, UniProt Q13547); assay: HDAC biochemical quench assay; settings: recombinant HDAC-1 purified from HEK 293 cells, 1 uM peptide substrate, 90 min at room temperature
T1 construct: made in house; host or cells: HEK 293 cells
Source text: The function of histone deacetylase (HDAC) is the deacetylation of lysines in e.g. histone H4. A peptide of 17 amino acids derived from histone H4 was labeled with TAMRA at the C-terminus and QSY-7 at the N-terminus and was used as a substrate (TAMRA-first17 aa of histone H4-QSY7). Following deacetylation by HDAC, the enzyme Lys C is able to cleave the peptide after lysine. […] Inhibition of HDAC by compounds results in low signals because Lys C could not cleave the substrate and the quench effect persists.
For dose response curves, 10 concentrations were diluted 1:3 starting at 30 uM. 10 ul compound dilution were put into each well of a 384 well plate. 10 ul HDAC were added (recombinant HDAC-1 purified from HEK 293 cells; enzyme activity has to be assessed for each preparation). 10 ul peptide substrate was added (1 uM final concentration, derived from 1 mM stock solution diluted 1:1000 in test buffer). After 90 min incubation at room temperature, the reaction was stopped by addition of 20 ul test buffer including 3 ug/ml Lys C and 0.075% SDS. After overnight incubation the fluorescence signal of TAMRA was measured (Victor 2 from Wallac, absorption 544 nm, emission 590 nm). The O.D. of DMSO-treated control wells is 100%, the % inhibition of compound treated wells is calculated in relation to 100%. Based on 10 concentrations a IC50 curve is generated by using XL.fit3.
Test buffer used: a mixture of 10 mM Hepes pH8, 10 mM NaCl, 10% Glycerol, 0.005% Triton X100, 0.1 mM EDTA, 0.1 mM TCEP. As plates were used 384 well plates (black, Greiner, 781077).

T1 sequence (Q13547 whole entry, species assumed): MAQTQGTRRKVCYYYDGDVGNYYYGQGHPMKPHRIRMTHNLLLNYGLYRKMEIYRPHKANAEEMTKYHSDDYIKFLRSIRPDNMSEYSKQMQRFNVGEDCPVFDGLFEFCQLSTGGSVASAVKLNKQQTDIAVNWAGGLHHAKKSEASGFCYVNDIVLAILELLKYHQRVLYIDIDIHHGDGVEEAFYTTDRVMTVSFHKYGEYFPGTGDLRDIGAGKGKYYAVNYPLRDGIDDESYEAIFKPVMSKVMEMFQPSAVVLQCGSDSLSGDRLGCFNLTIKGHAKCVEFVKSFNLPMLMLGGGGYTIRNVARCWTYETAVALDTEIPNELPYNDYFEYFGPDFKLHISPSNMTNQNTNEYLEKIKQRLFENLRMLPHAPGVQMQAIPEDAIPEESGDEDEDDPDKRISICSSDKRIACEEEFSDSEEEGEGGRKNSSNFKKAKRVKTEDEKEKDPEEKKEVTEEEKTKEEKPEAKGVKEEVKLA

Structure (SMILES) | pIC50 ([1]; Homo sapiens, 120 h) | pIC50 [2] | pIC50 [1]
Cc1ccc([C@@H](C)NC(=O)c2ccc(C(=O)NO)s2)cc1 [Example 2a, (R)-thiophene-2,5-dicarboxylic acid 2-hydroxyamide 5-[(1-p-tolyl-ethyl)-amide]] | 6.72 | 8.47 | 
C[C@@H](NC(=O)c1ccc(C(=O)NO)s1)c1ccc(F)cc1 [Example 2b, (R)-thiophene-2,5-dicarboxylic acid 2-{[1-(4-fluoro-phenyl)-ethyl]-amide}5-hydroxyamide] | 6.77 | 8.30 | 
C[C@@H](NC(=O)c1ccc(C(=O)NO)s1)c1ccc(Cl)cc1 [Example 2c, (R)-thiophene-2,5-dicarboxylic acid 2-{[1-(4-chloro-phenyl)-ethyl]-amide}5-hydroxyamide] | 7.30 | 8.46 | 
C[C@@H](NC(=O)c1ccc(C(=O)NO)s1)c1ccc(Br)cc1 [Example 2d, (R)-thiophene-2,5-dicarboxylic acid 2-{[1-(4-bromo-phenyl)-ethyl]-amide}5-hydroxyamide] | 7.10 | 8.41 | 
C[C@@H](NC(=O)c1ccc(C(=O)NO)s1)c1cccc2ccccc12 [Example 2e, (R)-thiophene-2,5-dicarboxylic acid 2-hydroxyamide 5-[(1-naphthalen-1-yl-ethyl)-amide]] | 7.40 | 8.76 | 
C[C@@H](NC(=O)c1ccc(C(=O)NO)s1)c1ccc2ccccc2c1 [Example 2f, (R)-thiophene-2,5-dicarboxylic acid 2-hydroxyamide 5-[(1-naphthalen-2-yl-ethyl)-amide]] | 8.00 | 8.30 | 
CC[C@@H](NC(=O)c1ccc(C(=O)NO)s1)c1ccccc1 [Example 2g, (R)-thiophene-2,5-dicarboxylic acid 2-hydroxyamide 5-[(1-phenyl-propyl)-amide]] | 7.22 | 8.93 | 
COc1cccc([C@@H](C)NC(=O)c2ccc(C(=O)NO)s2)c1 [Example 2h, (R)-thiophene-2,5-dicarboxylic acid 2-hydroxyamide 5-{[1-(3-methoxy-phenyl)-ethyl]-amide}] | 7.15 | 8.88 | 
COc1ccc([C@@H](C)NC(=O)c2ccc(C(=O)NO)s2)cc1 [Example 2i, (R)-thiophene-2,5-dicarboxylic acid 2-hydroxyamide 5-{[1-(4-methoxy-phenyl)-ethyl]-amide}] | 7.30 | 8.75 | 
C[C@H](NC(=O)c1ccc(C(=O)NO)s1)c1ccccc1 [Example 4a, (S)-thiophene-2,5-dicarboxylic acid 2-hydroxyamide 5-[(1-phenyl-ethyl)-amide]] |  |  | 6.08
C[C@H](NC(=O)c1ccc(C(=O)NO)s1)c1ccc(Cl)cc1 [Example 4c, (S)-thiophene-2,5-dicarboxylic acid 2-{[1-(4-chloro-phenyl)-ethyl]-amide}5-hydroxyamide] |  |  | 6.08
C[C@H](NC(=O)c1ccc(C(=O)NO)s1)c1ccc(Br)cc1 [Example 4d, (S)-thiophene-2,5-dicarboxylic acid 2-{[1-(4-bromo-phenyl)-ethyl]-amide}5-hydroxyamide] |  |  | 6.06
C[C@H](NC(=O)c1ccc(C(=O)NO)s1)c1ccc2ccccc2c1 [Example 4f, (S)-thiophene-2,5-dicarboxylic acid 2-hydroxyamide 5-[(1-naphthalen-2-yl-ethyl)-amide]] |  |  | 6.04
COc1cccc([C@H](C)NC(=O)c2ccc(C(=O)NO)s2)c1 [Example 4h, (S)-thiophene-2,5-dicarboxylic acid 2-hydroxyamide 5-{[1-(3-methoxy-phenyl)-ethyl]-amide}] |  | 8.75 | 
O=C(NO)c1ccc(C(=O)N[C@H]2CCc3ccccc32)s1 [Example 4m, (S)-thiophene-2,5-dicarboxylic acid 2-hydroxyamide 5-indan-1-ylamide] |  | 8.53 | 
O=C(NO)c1ccc(C(=O)N[C@H](CN2CCOCC2)c2ccccc2)s1 [Example 10c, (S)-thiophene-2,5-dicarboxylic acid 2-hydroxyamide 5-[(2-morpholin-4-yl-1-phenyl-ethyl)-amide]] |  | 8.71 | 
